In ChEMBL document CHEMBL5046248, “New Pqs Quorum Sensing System Inhibitor as an Antibacterial Synergist against Multidrug-Resistant Pseudomonas aeruginosa” (J Med Chem, 2022):
Values after ≈ are worked out from the molar mass of the structure shown.

Legend:
Pseudomonas aeruginosa [1] = test: Antibacterial activity against Pseudomonas aeruginosa PAO1 assessed as inhibition of biofilm formation for 24 hrs by crystal violet staining based assay; format: functional, organism-based; conditions: PAO1, 24 h
Pseudomonas aeruginosa [2] = test: Antibacterial activity against Pseudomonas aeruginosa 1167 assessed as bacterial growth inhibition by broth microdilution method; format: functional
Pseudomonas aeruginosa [3] = test: Antibacterial activity against Pseudomonas aeruginosa FB assessed as bacterial growth inhibition by broth microdilution method; format: functional
Pseudomonas aeruginosa [4] = test: Antibacterial activity against Pseudomonas aeruginosa 1121 assessed as bacterial growth inhibition by broth microdilution method; format: functional
Pseudomonas aeruginosa [5] = test: Antibacterial activity against Pseudomonas aeruginosa PAO1 assessed as bacterial growth inhibition by broth microdilution method; format: functional
Pseudomonas aeruginosa [6] = test: Antibacterial activity against Pseudomonas aeruginosa 1129 assessed as bacterial growth inhibition by broth microdilution method; format: functional

IC50 (Pseudomonas aeruginosa [1])	Structure (SMILES)	further results
55.5 µM	CCCn1c(C)cc(=O)c(O)c1CNc1ccc(OC)cc1	
> 100 µM	CCCn1c(C)cc(=O)c(O)c1CNC1CCCC1	
> 100 µM	CCn1c(C)cc(=O)c(O)c1CNC(=O)c1ccc(OC)cc1	
> 100 µM	CCCCCCC(=O)NCc1c(O)c(=O)cc(C)n1CCC	
> 100 µM	CCCCCCC(=O)NCc1cc(=O)c(O)cn1O	
> 100 µM	COc1ccc(C(=O)NCc2cc(=O)c(O)cn2C)cc1	
> 100 µM	CCCCCCC(=O)NCc1c(O)c(=O)cc(C)n1CC	
> 100 µM	Cn1cc(O)c(=O)cc1CNC(=O)c1ccc(C(F)(F)F)cc1	
> 100 µM	COCCn1c(C)cc(=O)c(O)c1CNC(=O)c1ccc(C(F)(F)F)cc1	
52.5 µM	CCCCCn1c(C)cc(=O)c(O)c1CNC(=O)c1ccc(OC)cc1	
> 100 µM	COc1ccc(CC(=O)NCc2cc(=O)c(O)cn2O)cc1	
45.4 µM	CCCCn1c(C)cc(=O)c(O)c1CNc1ccc(OC)cc1	
31.1 µM	CCCCn1c(C)cc(=O)c(O)c1CNC(=O)c1cccc(OC)c1	
	NC[C@H]1O[C@H](O[C@H]2[C@H](O)[C@@H](O[C@H]3O[C@H](CO)[C@@H](O)[C@H](N)[C@H]3O)[C@H](N)C[C@@H]2N)[C@H](N)C[C@@H]1O [TOBRAMYCIN]	MIC (Pseudomonas aeruginosa [2]): 10 µg/mL (≈ 21.4 µM); MIC (Pseudomonas aeruginosa [3]): 10 µg/mL (≈ 21.4 µM); MIC (Pseudomonas aeruginosa [4]): 10 µg/mL (≈ 21.4 µM); MIC (Pseudomonas aeruginosa [5]): 5 µg/mL (≈ 10.7 µM); MIC (Pseudomonas aeruginosa [6]): 10 µg/mL (≈ 21.4 µM)
> 100 µM	Cn1cc(O)c(=O)cc1CNC(=O)Cc1ccc(F)cc1	
> 100 µM	CCCCCC(=O)NCc1c(O)c(=O)cc(C)n1CCC	
28.5 µM	CCCCn1c(C)cc(=O)c(O)c1CNC(=O)c1ccccc1OC	
> 100 µM	CCCCCC(=O)NCc1c(O)c(=O)cc(C)n1CC	
> 100 µM	CCn1c(C)cc(=O)c(O)c1CNS(=O)(=O)c1ccc(OC)cc1	
59.6 µM	CCCn1c(C)cc(=O)c(O)c1CNS(=O)(=O)c1ccc(OC)cc1	
> 100 µM	CCCCn1c(C)cc(=O)c(O)c1CNC(=O)Cc1ccc(F)cc1	
> 100 µM	CCCCCC(=O)NCc1cc(=O)c(O)cn1C	
